Experimental data taken from US12122761B2, “2-azaspiro[3.4]octane derivatives as M4 agonists” (NOVARTIS AG, priority 2019, dated 2024).

Molecular target: T1, Cloned human M1 receptor (CHRM1) stably expressed in HEK293 cells (Homo sapiens, UniProt P11229)
T1 construct: expressed in transfected cells; host or cells: HEK293
T1 sequence (P11229 1-460): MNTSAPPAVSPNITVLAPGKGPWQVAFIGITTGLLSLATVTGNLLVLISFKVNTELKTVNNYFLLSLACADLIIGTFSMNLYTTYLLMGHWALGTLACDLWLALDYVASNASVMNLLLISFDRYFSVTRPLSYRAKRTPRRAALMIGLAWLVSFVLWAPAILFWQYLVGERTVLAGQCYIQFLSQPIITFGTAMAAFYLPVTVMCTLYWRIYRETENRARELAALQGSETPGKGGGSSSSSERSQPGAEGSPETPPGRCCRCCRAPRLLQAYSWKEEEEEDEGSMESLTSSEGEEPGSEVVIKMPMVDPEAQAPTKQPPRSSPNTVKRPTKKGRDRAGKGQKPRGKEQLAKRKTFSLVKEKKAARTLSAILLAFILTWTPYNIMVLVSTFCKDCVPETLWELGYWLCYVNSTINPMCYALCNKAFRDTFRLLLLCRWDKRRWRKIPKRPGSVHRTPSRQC
Experiment: CHRM1 Ca++ Flux Assay (agonist mode, FDSS 7000EX)
Format: cell-based
Conditions: for M1 FDSS PA: Percent Activity; for EC50: geometric mean if tested more than once
Method: The above examples were characterized by measuring the intracellular mobilization of Ca++ ions caused by signaling events mediated by the receptor. The Intra-cellular Calcium flux levels were captured by the highly sensitive Ca++ indicator, Calcium Assay Kit (BD Biosciences, Catalog Number 640178). The fluorescent activity from all receptors were monitored by the fluorescent imager, FDSS 7000EX (Hamamatsu) over a span of 3 minutes.
Cloned human M1 receptor (CHRM1) was stably expressed in HEK293 cells and were grown and maintained in a monolayer culture with DMEM/High Glucose (Life Technologies) supplemented with 10% Fetal Bovine Serum, 1× Pen-Strep, and 0.5 mg/mL Geneticin in a humidified atmosphere (5% CO2) at 37° C. The cultures were grown to 90% confluency in T150 flasks (Corning) and washed with 1×DPBS and lifted with 0.05% Trypsin (Life Technologies). The cells were then spun (1K rpm, 3 minutes) and frozen using Recovery Cell Culture Freezing Media (Gibco Technologies). Cells were stored in liquid nitrogen and thawed a day before the assay.
Prior to the day of the assay, stable HEK293 M1 cells were thawed and plated on 384 well black walled clear bottom TC treated plates (Greiner Cat #781091) at 25K cells/well with DMEM/High Glucose supplemented with 10% FBS (Hyclone) Pen-Strep (Life Technologies) and kept overnight in a humidified atmosphere (5% CO2) at 37° C. The following day, cells were loaded with 20 uL Ca^++ dye (BD Biosciences) using Loading Buffer (HBSS +Ca/+Mg, 20 mM HEPES) and placed back in cell incubator for a minimum of 1 hour. The dye was replaced with 45 μL Assay Buffer (HBSS −Ca/−Mg, 20 mM HEPES) and kept at room temperature prior to running on cell imager. Compounds were prepared in Assay Buffer and 5 uL was added to the cells. The FDSS 7000EX (Hamamatsu) was used to acquire Ca++ traces for 3 minutes from cells treated with 11 point dose in triplicate in order to generate dose response curves in agonist mode. All compounds were serially diluted in DMSO then prepared in Assay Buffer for Ca^++ flux studies. The dose response curves were generated from the average of triplicate wells obtained from each data point and used a non-linear regression of four parameter dose response algorithm. The Percent Activity (PA) was measured to EC100 of Carbachol.

For `O=C(N1CC2(CC[C@@H](N3CCC(c4ccccc4OC4CCOCC4)CC3)C2)C1)C1(F)CC1` (single isomer, unassigned) [Example 9F, (R)-(1-fluorocyclopropyl)(6-(4-(2-((tetrahydro-2H-pyran-4-yl)oxy)phenyl)piperidin-1-yl)-2-azaspiro[3.4]octan-2-yl)methanone or (S)-(1-fluorocyclopropyl)(6-(4-(2-((tetrahydro-2H-pyran-4-yl)oxy)phenyl)piperidin-1-yl)-2-azaspiro[3.4]octan-2-yl)methanone], the “M1 FDSS PA” value was 0% and the EC50 was over 25000 nM.

In the case of `O=C(N1CC2(CC[C@@H](N3CCC(c4ccccc4C4(O)CCOCC4)CC3)C2)C1)C1(F)CC1` (single isomer, unassigned) [Example 9G, (R)-(1-fluorocyclopropyl)(6-(4-(2-(4-hydroxytetrahydro-2H-pyran-4-yl)phenyl)piperidin-1-yl)-2-azaspiro[3.4]octan-2-yl)methanone or (S)-(1-fluorocyclopropyl)(6-(4-(2-(4-hydroxytetrahydro-2H-pyran-4-yl)phenyl)piperidin-1-yl)-2-azaspiro[3.4]octan-2-yl)methanone], the “M1 FDSS PA” value is reported as 16% and the EC50 is reported as 301 nM.

In the case of `O=C(N1CC2(CC[C@@H](N3CCC(c4ccccc4C4(O)CCOCC4)CC3)C2)C1)C1(F)CC1` (single isomer, unassigned) [Example 9H, (R)-(1-fluorocyclopropyl)(6-(4-(2-(4-hydroxytetrahydro-2H-pyran-4-yl)phenyl)piperidin-1-yl)-2-azaspiro[3.4]octan-2-yl)methanone or (S)-(1-fluorocyclopropyl)(6-(4-(2-(4-hydroxytetrahydro-2H-pyran-4-yl)phenyl)piperidin-1-yl)-2-azaspiro[3.4]octan-2-yl)methanone], the “M1 FDSS PA” value is reported as 0% and the EC50 is reported as over 25000 nM.

`O=C(N1CC2(CC[C@@H](N3CCC(c4cc(F)ccc4C4(O)CCOCC4)CC3)C2)C1)C1(F)CC1` (single isomer, unassigned) [Example 9I, (R)-(6-(4-(5-fluoro-2-(4-hydroxytetrahydro-2H-pyran-4-yl)phenyl)piperidin-1-yl)-2-azaspiro[3.4]octan-2-yl)(1-fluorocyclopropyl)methanone or (S)-(6-(4-(5-fluoro-2-(4-hydroxytetrahydro-2H-pyran-4-yl)phenyl)piperidin-1-yl)-2-azaspiro[3.4]octan-2-yl)(1-fluorocyclopropyl)methanone] was tested, and the “M1 FDSS PA” value was 23% and the EC50 was 92 nM.

For `O=C(N1CC2(CC[C@@H](N3CCC(c4cc(F)ccc4C4(O)CCOCC4)CC3)C2)C1)C1(F)CC1` (single isomer, unassigned) [Example 9J, (R)-(6-(4-(5-fluoro-2-(4-hydroxytetrahydro-2H-pyran-4-yl)phenyl)piperidin-1-yl)-2-azaspiro[3.4]octan-2-yl)(1-fluorocyclopropyl)methanone or (S)-(6-(4-(5-fluoro-2-(4-hydroxytetrahydro-2H-pyran-4-yl)phenyl)piperidin-1-yl)-2-azaspiro[3.4]octan-2-yl)(1-fluorocyclopropyl)methanone], the “M1 FDSS PA” value was 3% and the EC50 was 2690 nM.

`O=C(N1CC2(CC[C@@H](N3CCC(c4cc(F)ccc4C4CCOCC4)CC3)C2)C1)C1(F)CC1` (single isomer, unassigned) [Example 9K, (R)-(6-(4-(5-fluoro-2-(tetrahydro-2H-pyran-4-yl)phenyl)piperidin-1-yl)-2-azaspiro[3.4]octan-2-yl)(1-fluorocyclopropyl)methanone or (S)-(6-(4-(5-fluoro-2-(tetrahydro-2H-pyran-4-yl)phenyl)piperidin-1-yl)-2-azaspiro[3.4]octan-2-yl)(1-fluorocyclopropyl)methanone] was tested, and the “M1 FDSS PA” value was 58% and the EC50 was 36 nM.

For `O=C(N1CC2(CC[C@@H](N3CCC(c4cc(F)ccc4C4CCOCC4)CC3)C2)C1)C1(F)CC1` (single isomer, unassigned) [Example 9L, (R)-(6-(4-(5-fluoro-2-(tetrahydro-2H-pyran-4-yl)phenyl)piperidin-1-yl)-2-azaspiro[3.4]octan-2-yl)(1-fluorocyclopropyl)methanone or (S)-(6-(4-(5-fluoro-2-(tetrahydro-2H-pyran-4-yl)phenyl)piperidin-1-yl)-2-azaspiro[3.4]octan-2-yl)(1-fluorocyclopropyl)methanone], the “M1 FDSS PA” value was 31% and the EC50 was 569 nM.

`Fc1cncc(N2CC3(CC[C@@H](N4CCC(c5cc(F)ccc5OC5CCOCC5)CC4)C3)C2)c1` (single isomer, unassigned) [Example 10A, (R)-6-(4-(5-fluoro-2-((tetrahydro-2H-pyran-4-yl)oxy)phenyl)piperidin-1-yl)-2-(5-fluoropyridin-3-yl)-2-azaspiro[3.4]octane or (S)-6-(4-(5-fluoro-2-((tetrahydro-2H-pyran-4-yl)oxy)phenyl)piperidin-1-yl)-2-(5-fluoropyridin-3-yl)-2-azaspiro[3.4]octane] was tested, and the “M1 FDSS PA” value was 34% and the EC50 was 1330 nM.

In the case of `Fc1cncc(N2CC3(CC[C@@H](N4CCC(c5cc(F)ccc5OC5CCOCC5)CC4)C3)C2)c1` (single isomer, unassigned) [Example 10B, (R)-6-(4-(5-fluoro-2-((tetrahydro-2H-pyran-4-yl)oxy)phenyl)piperidin-1-yl)-2-(5-fluoropyridin-3-yl)-2-azaspiro[3.4]octane or (S)-6-(4-(5-fluoro-2-((tetrahydro-2H-pyran-4-yl)oxy)phenyl)piperidin-1-yl)-2-(5-fluoropyridin-3-yl)-2-azaspiro[3.4]octane], the EC50 is reported as over 25000 nM.

In the case of `Fc1ccc(C2CCOCC2)c(C2CCN([C@@H]3CCC4(C3)CN(c3cncnc3)C4)CC2)c1` (single isomer, unassigned) [Example 10C, (R)-6-(4-(5-fluoro-2-(tetrahydro-2H-pyran-4-yl)phenyl)piperidin-1-yl)-2-(pyrimidin-5-yl)-2-azaspiro[3.4]octane or (S)-6-(4-(5-fluoro-2-(tetrahydro-2H-pyran-4-yl)phenyl)piperidin-1-yl)-2-(pyrimidin-5-yl)-2-azaspiro[3.4]octane], the “M1 FDSS PA” value is reported as 76% and the EC50 is reported as 80 nM.

In the case of `Fc1ccc(C2CCOCC2)c(C2CCN([C@@H]3CCC4(C3)CN(c3cncnc3)C4)CC2)c1` (single isomer, unassigned) [Example 10D, (R)-6-(4-(5-fluoro-2-(tetrahydro-2H-pyran-4-yl)phenyl)piperidin-1-yl)-2-(pyrimidin-5-yl)-2-azaspiro[3.4]octane or (S)-6-(4-(5-fluoro-2-(tetrahydro-2H-pyran-4-yl)phenyl)piperidin-1-yl)-2-(pyrimidin-5-yl)-2-azaspiro[3.4]octane], the “M1 FDSS PA” value is reported as 55% and the EC50 is reported as 1410 nM.

In the case of `Fc1ccc(OC2CC3(COC3)C2)c(C2CCN([C@@H]3CCC4(C3)CN(c3cncnc3)C4)CC2)c1` (single isomer, unassigned) [Example 10E, (R)-6-(4-(2-((2-oxaspiro[3.3]heptan-6-yl)oxy)-5-fluorophenyl)piperidin-1-yl)-2-(pyrimidin-5-yl)-2-azaspiro[3.4]octane or (S)-6-(4-(2-((2-oxaspiro[3.3]heptan-6-yl)oxy)-5-fluorophenyl)piperidin-1-yl)-2-(pyrimidin-5-yl)-2-azaspiro[3.4]octane], the “M1 FDSS PA” value is reported as 4% and the EC50 is reported as 3990 nM.

`Fc1ccc(OC2CC3(COC3)C2)c(C2CCN([C@@H]3CCC4(C3)CN(c3cncnc3)C4)CC2)c1` (single isomer, unassigned) [Example 10F, (R)-6-(4-(2-((2-oxaspiro[3.3]heptan-6-yl)oxy)-5-fluorophenyl)piperidin-1-yl)-2-(pyrimidin-5-yl)-2-azaspiro[3.4]octane or (S)-6-(4-(2-((2-oxaspiro[3.3]heptan-6-yl)oxy)-5-fluorophenyl)piperidin-1-yl)-2-(pyrimidin-5-yl)-2-azaspiro[3.4]octane] was tested, and the “M1 FDSS PA” value was 0% and the EC50 was over 25000 nM.
